What was measured:
Periplaneta americana [1] = assay: (§1) Insecticidal activity against Periplaneta americana (American cockroach) assessed as killing compound injected into abdomen of cockroach after 24 hr in presence of 50 ug piperonyl butoxide oxidative metabolism inhibitor and 50 ug propargyl propyl benzenephosphonate inhibitor of hydrolytic measured per insect; assay type: functional
Periplaneta americana [2] = assay: Insecticidal activity against Periplaneta americana (American cockroach) assessed as killing compound injected into abdomen of cockroach after 24 hr measured per insect; assay type: functional
Periplaneta americana [3] = assay: Insecticidal activity against Periplaneta americana (American cockroach) assessed as killing compound injected into abdomen of cockroach after 24 hr in presence of 50 ug propargyl propyl benzenephosphonate inhibitor of hydrolytic metabolism of tetramethrin pyrethroid measured per insect relative to compound alone; assay type: functional
Periplaneta americana [4] = assay: Insecticidal activity against Periplaneta americana (American cockroach) assessed as killing compound injected into abdomen of cockroach after 24 hr in presence of 50 ug piperonyl butoxide oxidative metabolism inhibitor measured per insect relative to compound alone; assay type: functional
Periplaneta americana [5] = assay: as §1, with “insect relative to compound alone” for “insect”; assay type: functional
Periplaneta americana [6] = assay: Insecticidal activity against Periplaneta americana (American cockroach) assessed as killing compound injected into abdomen of cockroach after 24 hr in presence of 50 ug propargyl propyl benzenephosphonate inhibitor of hydrolytic metabolism of tetramethrin pyrethroid measured per insect; assay type: functional
Periplaneta americana [7] = assay: Insecticidal activity against Periplaneta americana (American cockroach) assessed as killing compound injected into abdomen of cockroach after 24 hr in presence of 50 ug piperonyl butoxide oxidative metabolism inhibitor measured per insect; assay type: functional
Periplaneta americana [8] = assay: Insecticidal activity against Periplaneta americana (American cockroach) assessed as changes in frequency of firing in nerve cords in nerve preparation measured for every 30 secs immediately after treatment at 3x10'-6 M by electrophysiological method; assay type: functional, organism-based; details: TDE = time-dependent effect
[9] = target: T1, Nicotinic acetylcholine receptor alpha 5 subunit (Musca domestica, UniProt A9XFY4); assay: Displacement of [3H]imidacloprid from Musca domestica (house fly)-head membrane nAChR
T1 sequence (A9XFY4 whole entry): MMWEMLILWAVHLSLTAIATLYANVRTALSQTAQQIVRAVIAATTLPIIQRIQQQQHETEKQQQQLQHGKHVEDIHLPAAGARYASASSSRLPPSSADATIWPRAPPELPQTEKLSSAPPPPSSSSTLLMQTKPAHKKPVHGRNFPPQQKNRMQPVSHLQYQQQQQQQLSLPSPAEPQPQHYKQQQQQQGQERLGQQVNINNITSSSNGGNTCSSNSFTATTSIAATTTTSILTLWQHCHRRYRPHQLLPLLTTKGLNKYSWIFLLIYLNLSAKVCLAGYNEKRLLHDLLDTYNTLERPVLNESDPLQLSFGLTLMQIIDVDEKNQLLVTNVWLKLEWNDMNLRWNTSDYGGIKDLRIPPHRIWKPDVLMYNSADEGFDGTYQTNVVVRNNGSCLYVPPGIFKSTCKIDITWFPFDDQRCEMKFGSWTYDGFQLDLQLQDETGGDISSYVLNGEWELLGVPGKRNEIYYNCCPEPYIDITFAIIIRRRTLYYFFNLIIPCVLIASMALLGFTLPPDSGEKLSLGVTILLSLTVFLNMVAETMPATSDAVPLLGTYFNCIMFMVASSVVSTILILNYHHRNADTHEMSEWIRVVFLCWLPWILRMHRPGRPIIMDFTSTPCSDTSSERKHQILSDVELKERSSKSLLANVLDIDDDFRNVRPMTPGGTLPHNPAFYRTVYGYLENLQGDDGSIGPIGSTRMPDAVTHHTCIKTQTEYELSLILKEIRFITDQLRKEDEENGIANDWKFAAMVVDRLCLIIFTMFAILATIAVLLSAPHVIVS

Periplaneta americana [10] = assay: Insecticidal activity against Periplaneta americana (American cockroach) assessed as changes in frequency of firing in nerve cords in nerve preparation measured for every 30 secs immediately after treatment at 9x10'-7 M by electrophysiological method; assay type: functional; details: TDE = time-dependent effect
[11] = target: T2, Nicotinic acetylcholine receptor alpha 5 subunit (Musca domestica) (UniProt A9XFY4); assay: Displacement of [3H]imidacloprid from Musca domestica (house fly)-head membrane nAChR relative to N,N'-(3,3'-(hexane-1,6-diyl)bis(1-((6-chloropyridin-3-yl)methyl)imidazolidin-3-yl-2-ylidene))dinitramide
T2 sequence (whole entry): T1 sequence (A9XFY4 whole entry)

## O=[N+]([O-])/N=C1\N(Cc2ccc(N3CCN(Cc4ccc(Cl)nc4)/C3=N\[N+](=O)[O-])cc2)CCN1Cc1ccc(Cl)nc1
Periplaneta americana [1]
  MLD: 0.54 nmol
Periplaneta americana [2]
  MLD: 27 nmol
Periplaneta americana [3]
  Ratio: 10
Periplaneta americana [4]
  Ratio: 4
Periplaneta americana [5]
  Ratio: 50
Periplaneta americana [6]
  MLD: 2.7 nmol
Periplaneta americana [7]
  MLD: 6.7 nmol

## O=[N+]([O-])/N=C1\N(CCCCCCN2CCN(Cc3ccc(Cl)nc3)/C2=N/[N+](=O)[O-])CCN1Cc1ccc(Cl)nc1
Periplaneta americana [1]
  MLD: 0.29 nmol
Periplaneta americana [2]
  MLD: 2.2 nmol
Periplaneta americana [3]
  Ratio: 10
Periplaneta americana [4]
  Ratio: 4
Periplaneta americana [5]
  Ratio: 8
Periplaneta americana [8]
  Activity: tde
Periplaneta americana [6]
  MLD: 0.22 nmol
[9]
  IC50: 3.1 µM
Periplaneta americana [10]
  Activity: tde
Periplaneta americana [7]
  MLD: 0.58 nmol

## O=[N+]([O-])/N=C1\N(CCN2CCN(Cc3ccc(Cl)nc3)/C2=N/[N+](=O)[O-])CCN1Cc1ccc(Cl)nc1
Periplaneta americana [1]
  MLD: 1.1 nmol
Periplaneta americana [2]
  MLD: 8.3 nmol
Periplaneta americana [3]
  Ratio: 4
Periplaneta americana [4]
  Ratio: 1
Periplaneta americana [5]
  Ratio: 8
[11]
  Ratio: 0.028
Periplaneta americana [6]
  MLD: 2.2 nmol
[9]
  IC50: 110 µM
Periplaneta americana [7]
  MLD: 8.3 nmol

## O=[N+]([O-])/N=C1\N(CCCCN2CCN(Cc3ccc(Cl)nc3)/C2=N/[N+](=O)[O-])CCN1Cc1ccc(Cl)nc1
Periplaneta americana [1]
  MLD: 6.5 nmol
Periplaneta americana [2]
  MLD: 11 nmol
Periplaneta americana [5]
  Ratio: 2

## O=[N+]([O-])/N=C1\N(CCCCCCCCCCN2CCN(Cc3ccc(Cl)nc3)/C2=N/[N+](=O)[O-])CCN1Cc1ccc(Cl)nc1
Periplaneta americana [1]
  MLD: 0.23 nmol
Periplaneta americana [2]
  MLD: 3.7 nmol
Periplaneta americana [3]
  Ratio: 19
Periplaneta americana [4]
  Ratio: 2
Periplaneta americana [5]
  Ratio: 16
[11]
  Ratio: 0.11
Periplaneta americana [6]
  MLD: 0.19 nmol
[9]
  IC50: 27 µM
Periplaneta americana [7]
  MLD: 1.5 nmol

## O=[N+]([O-])/N=C1\N(CCCCCCCCN2CCN(Cc3ccc(Cl)nc3)/C2=N/[N+](=O)[O-])CCN1Cc1ccc(Cl)nc1
Periplaneta americana [1]
  MLD: 0.17 nmol
Periplaneta americana [2]
  MLD: 4.5 nmol
Periplaneta americana [5]
  Ratio: 26

## O=[N+]([O-])/N=C1\N(CC#CCN2CCN(Cc3ccc(Cl)nc3)/C2=N/[N+](=O)[O-])CCN1Cc1ccc(Cl)nc1
Periplaneta americana [1]
  MLD: 0.3 nmol
Periplaneta americana [2]
  MLD: 3.7 nmol
Periplaneta americana [5]
  Ratio: 12

## O=[N+]([O-])/N=C1\N(C/C=C/CN2CCN(Cc3ccc(Cl)nc3)/C2=N/[N+](=O)[O-])CCN1Cc1ccc(Cl)nc1
Periplaneta americana [1]
  MLD: 1.5 nmol
Periplaneta americana [2]
  MLD: 30 nmol
Periplaneta americana [5]
  Ratio: 20

## O=[N+]([O-])/N=C1/N(Cc2ccc(Cl)nc2)CCN1Cc1cccc(N2CCN(Cc3ccc(Cl)nc3)/C2=N\[N+](=O)[O-])c1
Periplaneta americana [1]
  MLD: 1 nmol
Periplaneta americana [2]
  MLD: 20 nmol
Periplaneta americana [5]
  Ratio: 20

## O=[N+]([O-])/N=C1\NCCN1Cc1ccc(Cl)nc1 [IMIDACLOPRID]
Periplaneta americana [1]
  MLD: 0.07 nmol
Periplaneta americana [2]
  MLD: 2.5 nmol
Periplaneta americana [3]
  Ratio: 13
Periplaneta americana [4]
  Ratio: 3
Periplaneta americana [5]
  Ratio: 36
[11]
  Ratio: 160
Periplaneta americana [6]
  MLD: 0.19 nmol
Periplaneta americana [7]
  MLD: 0.78 nmol

## O=[N+]([O-])/N=C1/N(CCCCCCCCCN2CCN(Cc3ccc(Cl)nc3)/C2=N/[N+](=O)[O-])CCN1Cc1ccc(Cl)nc1
Periplaneta americana [1]
  MLD: 0.17 nmol
Periplaneta americana [2]
  MLD: 2.8 nmol
Periplaneta americana [5]
  Ratio: 16

## O=[N+]([O-])/N=C1/N(CCCN2CCN(Cc3ccc(Cl)nc3)/C2=N/[N+](=O)[O-])CCN1Cc1ccc(Cl)nc1
Periplaneta americana [1]
  MLD: 0.79 nmol
Periplaneta americana [2]
  MLD: 4.9 nmol
Periplaneta americana [5]
  Ratio: 6

## O=[N+]([O-])NC1=NCCN1Cc1ccc(Cl)nc1 [IMIDACLOPRID]
[9]
  IC50: 0.02 µM

## O=[N+]([O-])/N=C1/N(CCCOCCCN2CCN(Cc3ccc(Cl)nc3)/C2=N/[N+](=O)[O-])CCN1Cc1ccc(Cl)nc1
Periplaneta americana [1]
  MLD: 0.3 nmol
Periplaneta americana [2]
  MLD: 5.9 nmol
Periplaneta americana [3]
  Ratio: 20
Periplaneta americana [4]
  Ratio: 26
Periplaneta americana [5]
  Ratio: 20
[11]
  Ratio: 0.042
Periplaneta americana [6]
  MLD: 0.3 nmol
[9]
  IC50: 73 µM
Periplaneta americana [7]
  MLD: 0.23 nmol

## O=[N+]([O-])/N=C1/N(CCCCCCCN2CCN(Cc3ccc(Cl)nc3)/C2=N/[N+](=O)[O-])CCN1Cc1ccc(Cl)nc1 [Heptamethylene 1,7-bis-imadacloprid]
Periplaneta americana [1]
  MLD: 0.22 nmol
Periplaneta americana [2]
  MLD: 2.8 nmol
Periplaneta americana [5]
  Ratio: 13

## O=[N+]([O-])/N=C1/N(CCCCCN2CCN(Cc3ccc(Cl)nc3)/C2=N/[N+](=O)[O-])CCN1Cc1ccc(Cl)nc1
Periplaneta americana [1]
  MLD: 0.16 nmol
Periplaneta americana [2]
  MLD: 3.9 nmol
Periplaneta americana [5]
  Ratio: 24

— ChEMBL document CHEMBL3046717, “Synthesis of Alkylene-Tethered Bis-Imidacloprid Derivatives as Highly Insecticidal and Nerve-Exciting Agents with Potent Affinity to [3H] Imidacloprid-Binding Sites on Nicotinic Acetylcholine Receptor” (J Pestic Sci, 2002)
